In brackets after ≈: the same amount, converted by molar mass.
The molecules below were run on Mycobacterium tuberculosis (assay: Antimycobacterial activity against InhA overexpressing Mycobacterium tuberculosis InhA-OE).
Assay type: functional

| Structure (SMILES) | MIC [µM] |
| --- | --- |
| Cn1cc(O)nc1NC(=O)c1cc(C(N)=S)ccn1 | 1.99 (≈ 0.552 µg/mL) |
| COc1ccc2c(c1)nc(NC(=O)c1cc(C(N)=S)ccn1)n2C | 0.72 (≈ 0.246 µg/mL) |
| Cn1c(NC(=O)c2cc(C(N)=S)ccn2)nc2cc(O)ccc21 | 0.54 (≈ 0.177 µg/mL) |
| Cn1cc(C#N)nc1NC(=O)c1cc(C(N)=S)ccn1 | 2.53 (≈ 0.724 µg/mL) |
| NNC(=O)c1ccncc1 [ISONIAZID] | 0.74 (≈ 0.101 µg/mL) |
